Reference: patent EP4722207A1, “OXOISOINDOLINYL-SUBSTITUTED TETRAHYDROPYRIMIDINEDIONE DERIVATIVE AND USE THEREOF” (Gluetacs Therapeutics (Shanghai) Co., Ltd., priority 2023, dated 2024)

Assays:
Type in all cases: cell-based
Conditions in all cases: compounds at 50 nM and 500 nM, 24 hours
GSPT1 = molecular target: T1, GSPT1 (Homo sapiens, UniProt P15170+Q96SW2); assay: Western-blot assay, substrate protein degradation in hPBMCs: GSPT1
T1 construct: effects of the compounds of the present disclosure on the expression of target proteins in cells; endogenous in cells; host or cells: human PBMCs (hPBMCs)

IKZF1 = molecular target: T2, IKZF1 (Homo sapiens, UniProt Q13422+Q96SW2); assay: Western-blot assay, substrate protein degradation in hPBMCs: IKZF1
T2 construct: effects of the compounds of the present disclosure on the expression of target proteins in cells; endogenous in cells; host or cells: human PBMCs (hPBMCs)

CK1α = molecular target: T3, CK1α (Homo sapiens, UniProt P48729+Q96SW2); assay: Western-blot assay, substrate protein degradation in hPBMCs: CK1α
T3 construct: effects of the compounds of the present disclosure on the expression of target proteins in cells; endogenous in cells; host or cells: human PBMCs (hPBMCs)

WEE1 = molecular target: T4, WEE1 (Homo sapiens, UniProt P30291+Q96SW2); assay: Western-blot assay, substrate protein degradation in hPBMCs: WEE1
T4 construct: effects of the compounds of the present disclosure on the expression of target proteins in cells; endogenous in cells; host or cells: human PBMCs (hPBMCs)

IKZF3 = molecular target: T5, IKZF3 (Homo sapiens, UniProt Q96SW2+Q9UKT9); assay: Western-blot assay, substrate protein degradation in hPBMCs: IKZF3
T5 construct: effects of the compounds of the present disclosure on the expression of target proteins in cells; endogenous in cells; host or cells: human PBMCs (hPBMCs)

IKZF2 = molecular target: T6, IKZF2 (Homo sapiens, UniProt Q96SW2+Q9UKS7); assay: Western-blot assay, substrate protein degradation in hPBMCs: IKZF2
T6 construct: effects of the compounds of the present disclosure on the expression of target proteins in cells; endogenous in cells; host or cells: human PBMCs (hPBMCs)

T3 sequence (P48729 whole entry): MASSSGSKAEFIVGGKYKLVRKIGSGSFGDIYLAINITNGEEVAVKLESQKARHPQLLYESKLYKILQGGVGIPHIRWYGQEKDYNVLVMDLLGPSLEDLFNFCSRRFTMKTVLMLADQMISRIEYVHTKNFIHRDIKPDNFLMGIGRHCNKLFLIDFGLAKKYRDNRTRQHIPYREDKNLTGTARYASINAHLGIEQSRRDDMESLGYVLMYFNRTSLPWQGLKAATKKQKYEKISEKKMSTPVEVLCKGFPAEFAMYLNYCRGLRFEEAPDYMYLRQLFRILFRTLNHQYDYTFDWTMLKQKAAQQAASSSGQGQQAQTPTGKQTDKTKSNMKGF
T3 sequence (Q96SW2 whole entry): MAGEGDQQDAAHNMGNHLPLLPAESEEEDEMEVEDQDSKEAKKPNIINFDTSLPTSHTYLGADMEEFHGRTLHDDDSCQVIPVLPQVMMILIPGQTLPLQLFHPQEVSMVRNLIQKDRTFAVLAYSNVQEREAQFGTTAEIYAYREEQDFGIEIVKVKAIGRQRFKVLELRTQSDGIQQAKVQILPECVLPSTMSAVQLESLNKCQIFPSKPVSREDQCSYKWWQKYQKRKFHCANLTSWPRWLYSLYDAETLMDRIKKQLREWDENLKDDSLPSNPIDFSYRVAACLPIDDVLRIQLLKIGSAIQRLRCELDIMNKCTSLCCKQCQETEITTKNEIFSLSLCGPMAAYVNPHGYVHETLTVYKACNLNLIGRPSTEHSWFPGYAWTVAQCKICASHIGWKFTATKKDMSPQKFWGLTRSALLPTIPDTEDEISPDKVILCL
T3 sequence (Q16531 whole entry partner): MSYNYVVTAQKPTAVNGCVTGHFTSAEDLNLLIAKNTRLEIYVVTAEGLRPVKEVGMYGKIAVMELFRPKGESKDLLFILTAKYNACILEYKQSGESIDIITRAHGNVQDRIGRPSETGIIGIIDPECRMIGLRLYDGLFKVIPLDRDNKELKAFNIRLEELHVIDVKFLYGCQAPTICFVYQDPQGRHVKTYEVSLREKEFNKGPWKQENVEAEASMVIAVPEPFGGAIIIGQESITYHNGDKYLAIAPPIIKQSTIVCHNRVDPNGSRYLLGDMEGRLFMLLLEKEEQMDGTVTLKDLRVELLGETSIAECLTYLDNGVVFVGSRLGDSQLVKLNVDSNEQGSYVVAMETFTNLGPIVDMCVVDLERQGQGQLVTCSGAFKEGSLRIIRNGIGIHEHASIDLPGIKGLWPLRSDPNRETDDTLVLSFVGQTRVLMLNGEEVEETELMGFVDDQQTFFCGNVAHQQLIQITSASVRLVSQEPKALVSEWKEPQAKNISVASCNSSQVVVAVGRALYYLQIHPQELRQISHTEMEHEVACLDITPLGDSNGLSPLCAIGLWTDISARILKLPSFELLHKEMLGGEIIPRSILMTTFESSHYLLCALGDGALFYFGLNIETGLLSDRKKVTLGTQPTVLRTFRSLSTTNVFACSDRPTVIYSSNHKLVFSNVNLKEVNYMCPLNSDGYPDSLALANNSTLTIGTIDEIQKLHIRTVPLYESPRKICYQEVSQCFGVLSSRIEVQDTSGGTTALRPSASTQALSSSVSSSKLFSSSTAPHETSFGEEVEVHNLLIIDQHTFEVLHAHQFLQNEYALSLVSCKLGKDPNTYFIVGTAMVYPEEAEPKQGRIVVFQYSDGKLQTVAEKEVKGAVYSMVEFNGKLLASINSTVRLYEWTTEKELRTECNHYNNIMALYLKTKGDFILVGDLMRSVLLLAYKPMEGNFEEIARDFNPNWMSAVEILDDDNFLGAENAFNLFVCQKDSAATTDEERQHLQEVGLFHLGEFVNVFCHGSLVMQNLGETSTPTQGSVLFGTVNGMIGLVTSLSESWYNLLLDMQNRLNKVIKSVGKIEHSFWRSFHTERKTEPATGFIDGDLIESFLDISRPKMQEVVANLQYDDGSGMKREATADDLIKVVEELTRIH
T2 sequence (Q13422 whole entry): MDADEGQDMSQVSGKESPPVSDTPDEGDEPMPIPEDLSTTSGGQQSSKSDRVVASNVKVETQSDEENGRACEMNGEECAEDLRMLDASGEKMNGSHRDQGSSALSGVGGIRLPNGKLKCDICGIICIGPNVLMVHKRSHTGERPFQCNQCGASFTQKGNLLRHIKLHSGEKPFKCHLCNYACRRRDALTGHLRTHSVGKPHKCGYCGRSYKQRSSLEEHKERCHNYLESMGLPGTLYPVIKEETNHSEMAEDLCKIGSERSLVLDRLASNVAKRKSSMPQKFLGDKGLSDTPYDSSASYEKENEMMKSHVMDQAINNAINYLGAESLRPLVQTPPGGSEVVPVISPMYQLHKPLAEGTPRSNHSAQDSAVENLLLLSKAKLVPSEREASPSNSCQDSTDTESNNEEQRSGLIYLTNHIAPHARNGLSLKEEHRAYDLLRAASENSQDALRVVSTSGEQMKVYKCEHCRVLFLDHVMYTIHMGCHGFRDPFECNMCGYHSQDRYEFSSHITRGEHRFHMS
T2 sequence (Q96SW2 whole entry): as the sequence (Q96SW2 whole entry) above
T2 sequence (Q16531 whole entry partner): as the sequence (Q16531 whole entry partner) above
T5 sequence (Q9UKT9 whole entry): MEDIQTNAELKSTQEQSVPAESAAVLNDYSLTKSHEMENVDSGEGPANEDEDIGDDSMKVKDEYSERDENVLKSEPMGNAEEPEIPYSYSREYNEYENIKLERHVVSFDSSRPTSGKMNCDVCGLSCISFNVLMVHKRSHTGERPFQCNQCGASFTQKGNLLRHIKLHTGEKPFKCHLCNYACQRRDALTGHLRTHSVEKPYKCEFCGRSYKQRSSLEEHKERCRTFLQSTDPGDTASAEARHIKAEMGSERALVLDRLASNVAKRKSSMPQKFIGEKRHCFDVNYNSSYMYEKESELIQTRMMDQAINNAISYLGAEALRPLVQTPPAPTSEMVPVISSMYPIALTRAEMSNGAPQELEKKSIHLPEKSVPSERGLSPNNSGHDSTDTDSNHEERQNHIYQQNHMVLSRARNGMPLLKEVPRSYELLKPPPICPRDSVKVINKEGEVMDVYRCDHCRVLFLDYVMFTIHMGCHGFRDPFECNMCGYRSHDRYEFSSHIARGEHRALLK
T5 sequence (Q96SW2 whole entry): as the sequence (Q96SW2 whole entry) above
T5 sequence (Q16531 whole entry partner): as the sequence (Q16531 whole entry partner) above
T4 sequence (P30291 whole entry): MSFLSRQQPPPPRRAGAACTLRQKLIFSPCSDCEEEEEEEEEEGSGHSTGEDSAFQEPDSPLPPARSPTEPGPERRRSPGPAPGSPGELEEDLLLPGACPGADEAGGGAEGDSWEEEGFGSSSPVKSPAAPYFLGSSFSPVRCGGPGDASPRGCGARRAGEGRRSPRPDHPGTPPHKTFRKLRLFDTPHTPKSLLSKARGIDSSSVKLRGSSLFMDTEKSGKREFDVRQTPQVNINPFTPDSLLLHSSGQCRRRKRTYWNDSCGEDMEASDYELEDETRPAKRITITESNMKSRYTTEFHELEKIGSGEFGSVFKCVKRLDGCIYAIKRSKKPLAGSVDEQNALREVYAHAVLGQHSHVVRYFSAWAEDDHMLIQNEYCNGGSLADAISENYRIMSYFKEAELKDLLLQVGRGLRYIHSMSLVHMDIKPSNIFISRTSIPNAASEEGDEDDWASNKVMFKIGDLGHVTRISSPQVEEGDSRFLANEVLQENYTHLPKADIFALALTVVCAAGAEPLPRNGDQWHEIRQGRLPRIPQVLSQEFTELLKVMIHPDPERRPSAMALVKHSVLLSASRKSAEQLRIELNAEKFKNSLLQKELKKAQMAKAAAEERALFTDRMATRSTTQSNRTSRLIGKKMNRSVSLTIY
T4 sequence (Q96SW2 whole entry): as the sequence (Q96SW2 whole entry) above
T4 sequence (Q16531 whole entry partner): as the sequence (Q16531 whole entry partner) above
T1 sequence (P15170 whole entry): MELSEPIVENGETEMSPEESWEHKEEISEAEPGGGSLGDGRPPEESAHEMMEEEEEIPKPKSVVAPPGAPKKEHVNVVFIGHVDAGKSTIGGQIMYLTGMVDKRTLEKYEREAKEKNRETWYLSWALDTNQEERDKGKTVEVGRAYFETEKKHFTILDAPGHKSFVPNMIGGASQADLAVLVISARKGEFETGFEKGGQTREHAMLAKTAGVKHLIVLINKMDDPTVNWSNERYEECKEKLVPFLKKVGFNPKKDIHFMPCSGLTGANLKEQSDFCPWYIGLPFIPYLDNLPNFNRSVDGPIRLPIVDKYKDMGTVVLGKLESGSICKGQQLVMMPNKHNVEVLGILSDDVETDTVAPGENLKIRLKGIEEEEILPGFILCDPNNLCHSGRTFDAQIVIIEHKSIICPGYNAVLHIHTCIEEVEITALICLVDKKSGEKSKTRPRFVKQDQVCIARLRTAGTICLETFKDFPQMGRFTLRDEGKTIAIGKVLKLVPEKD
T1 sequence (Q96SW2 whole entry): as the sequence (Q96SW2 whole entry) above
T1 sequence (Q16531 whole entry partner): as the sequence (Q16531 whole entry partner) above

| Structure (SMILES) | GSPT1 substrate protein remaining % (GSPT1) | IKZF1 substrate protein remaining % (IKZF1) | CK1α substrate protein remaining % (CK1α) | WEE1 substrate protein remaining % (WEE1) | IKZF3 substrate protein remaining % (IKZF3) | IKZF2 substrate protein remaining % (IKZF2) |
| --- | --- | --- | --- | --- | --- | --- |
| O=C1CCN(N2C(=O)c3ccc(CN4CCN(c5c(F)cccc5F)CC4)cc3C2=O)C(=O)N1 [GT-06796, 5-((4-(2,6-difluorophenyl)piperazin-1-yl)methyl)-2-(2,4-dioxotetrahydropyrimidin-1(2H)-yl)isoindoline-1,3-dione] | B ("B" is defined as 80%< substrate protein remaining %≤ 100%) | B ("B" is defined as 80%< substrate protein remaining %≤ 100%) | B ("B" is defined as 80%< substrate protein remaining %≤ 100%) | A ("A" is defined as 0% ≤ substrate protein remaining % ≤ 80%) | B ("B" is defined as 80%< substrate protein remaining %≤ 100%) | B ("B" is defined as 80%< substrate protein remaining %≤ 100%) |
| O=C1CCN(N2C(=O)c3ccc(CN4CCN(c5ccc(F)c(F)c5)CC4)cc3C2=O)C(=O)N1 [GT-06797, 5-((4-(3,4-difluorophenyl)piperazin-1-yl)methyl)-2-(2,4-dioxotetrahydropyrimidin-1(2H)-yl)isoindoline-1,3-dione] | B ("B" is defined as 80%< substrate protein remaining %≤ 100%) | B ("B" is defined as 80%< substrate protein remaining %≤ 100%) | B ("B" is defined as 80%< substrate protein remaining %≤ 100%) | A ("A" is defined as 0% ≤ substrate protein remaining % ≤ 80%) | B ("B" is defined as 80%< substrate protein remaining %≤ 100%) | B ("B" is defined as 80%< substrate protein remaining %≤ 100%) |
| O=C1CCN(N2C(=O)c3ccc(CN4CCC(c5ccccc5)CC4)cc3C2=O)C(=O)N1 [GT-06803, 2-(2,4-dioxotetrahydropyrimidin-1(2H)-yl)-5-((4-phenylpiperidin-1-yl)methyl)isoindoline-1,3-dione] | B ("B" is defined as 80%< substrate protein remaining %≤ 100%) | B ("B" is defined as 80%< substrate protein remaining %≤ 100%) | A ("A" is defined as 0% ≤ substrate protein remaining % ≤ 80%) | B ("B" is defined as 80%< substrate protein remaining %≤ 100%) | B ("B" is defined as 80%< substrate protein remaining %≤ 100%) | B ("B" is defined as 80%< substrate protein remaining %≤ 100%) |
| O=C1CCN(N2C(=O)c3ccc(CN4CCC(c5cccc(Br)c5)CC4)cc3C2=O)C(=O)N1 [GT-06804, 5-((4-(3-bromophenyl)piperidin-1-yl)methyl)-2-(2,4-dioxotetrahydropyrimidin-1(2H)-yl)isoindoline-1,3-dione] | B ("B" is defined as 80%< substrate protein remaining %≤ 100%) | B ("B" is defined as 80%< substrate protein remaining %≤ 100%) | A ("A" is defined as 0% ≤ substrate protein remaining % ≤ 80%) | B ("B" is defined as 80%< substrate protein remaining %≤ 100%) | B ("B" is defined as 80%< substrate protein remaining %≤ 100%) | B ("B" is defined as 80%< substrate protein remaining %≤ 100%) |
| O=C1CCN(N2C(=O)c3ccc(CN4CCC(c5ccc(Br)cc5)CC4)cc3C2=O)C(=O)N1 [GT-06805, 5-((4-(4-bromophenyl)piperidin-1-yl)methyl)-2-(2,4-dioxotetrahydropyrimidin-1(2H)-yl)isoindoline-1,3-dione] | B ("B" is defined as 80%< substrate protein remaining %≤ 100%) | B ("B" is defined as 80%< substrate protein remaining %≤ 100%) | A ("A" is defined as 0% ≤ substrate protein remaining % ≤ 80%) | B ("B" is defined as 80%< substrate protein remaining %≤ 100%) | B ("B" is defined as 80%< substrate protein remaining %≤ 100%) | B ("B" is defined as 80%< substrate protein remaining %≤ 100%) |
| O=C1CCN(N2C(=O)c3ccc(CN4CCC(c5ccccc5F)CC4)cc3C2=O)C(=O)N1 [GT-06877, 2-(2,4-dioxotetrahydropyrimidin-1(2H)-yl)-5-((4-(2-fluorophenyl)piperidin-1-yl)methyl)isoindoline-1,3-dione] | B ("B" is defined as 80%< substrate protein remaining %≤ 100%) | B ("B" is defined as 80%< substrate protein remaining %≤ 100%) | A ("A" is defined as 0% ≤ substrate protein remaining % ≤ 80%) | B ("B" is defined as 80%< substrate protein remaining %≤ 100%) | B ("B" is defined as 80%< substrate protein remaining %≤ 100%) | B ("B" is defined as 80%< substrate protein remaining %≤ 100%) |
| O=C1CCN(N2C(=O)c3ccc(CN4CCC(c5ccc(F)cc5)CC4)cc3C2=O)C(=O)N1 [GT-06878, 2-(2,4-dioxotetrahydropyrimidin-1(2H)-yl)-5-((4-(4-fluorophenyl)piperidin-1-yl)methyl)isoindoline-1,3-dione] | A ("A" is defined as 0% ≤ substrate protein remaining % ≤ 80%) | B ("B" is defined as 80%< substrate protein remaining %≤ 100%) | A ("A" is defined as 0% ≤ substrate protein remaining % ≤ 80%) | B ("B" is defined as 80%< substrate protein remaining %≤ 100%) | B ("B" is defined as 80%< substrate protein remaining %≤ 100%) | B ("B" is defined as 80%< substrate protein remaining %≤ 100%) |
| O=C1CCN(N2C(=O)c3ccc(CN4CCC(c5ccccc5C(F)(F)F)CC4)cc3C2=O)C(=O)N1 [GT-06879, 2-(2,4-dioxotetrahydropyrimidin-1(2H)-yl)-5-((4-(2-(trifluoromethyl)phenyl)piperidin-1-yl)methyl)isoindoline-1,3-dione] | A ("A" is defined as 0% ≤ substrate protein remaining % ≤ 80%) | B ("B" is defined as 80%< substrate protein remaining %≤ 100%) | B ("B" is defined as 80%< substrate protein remaining %≤ 100%) | B ("B" is defined as 80%< substrate protein remaining %≤ 100%) | B ("B" is defined as 80%< substrate protein remaining %≤ 100%) | B ("B" is defined as 80%< substrate protein remaining %≤ 100%) |
| O=C1CCN(N2C(=O)c3ccc(CN4CCC(c5cccc(C(F)(F)F)c5)CC4)cc3C2=O)C(=O)N1 [GT-06880, 2-(2,4-dioxotetrahydropyrimidin-1(2H)-yl)-5-((4-(3-(trifluoromethyl)phenyl)piperidin-1-yl)methyl)isoindoline-1,3-dione] | B ("B" is defined as 80%< substrate protein remaining %≤ 100%) | B ("B" is defined as 80%< substrate protein remaining %≤ 100%) | B ("B" is defined as 80%< substrate protein remaining %≤ 100%) | A ("A" is defined as 0% ≤ substrate protein remaining % ≤ 80%) | B ("B" is defined as 80%< substrate protein remaining %≤ 100%) | B ("B" is defined as 80%< substrate protein remaining %≤ 100%) |
| Cc1ccc(N2CCN(Cc3ccc4c(c3)CN(N3CCC(=O)NC3=O)C4=O)CC2)c(C)c1 [GT-06882, 1-(5-((4-(2,4-dimethylphenyl)piperazin-1-yl)methyl)-1-oxoisoindolin-2-yl)dihydropyrimidine-2,4(1H,3H)-dione] | A ("A" is defined as 0% ≤ substrate protein remaining % ≤ 80%) | A ("A" is defined as 0% ≤ substrate protein remaining % ≤ 80%) | B ("B" is defined as 80%< substrate protein remaining %≤ 100%) | A ("A" is defined as 0% ≤ substrate protein remaining % ≤ 80%) | B ("B" is defined as 80%< substrate protein remaining %≤ 100%) | B ("B" is defined as 80%< substrate protein remaining %≤ 100%) |
| Cc1ccc(Cl)cc1N1CCN(Cc2ccc3c(c2)CN(N2CCC(=O)NC2=O)C3=O)CC1 [GT-06883, 1-(5-((4-(5-chloro-2-methylphenyl)piperazin-1-yl)methyl)-1-oxoisoindolin-2-yl)dihydropyrimidine-2,4(1H,3H)-dione] | A ("A" is defined as 0% ≤ substrate protein remaining % ≤ 80%) | A ("A" is defined as 0% ≤ substrate protein remaining % ≤ 80%) | B ("B" is defined as 80%< substrate protein remaining %≤ 100%) | A ("A" is defined as 0% ≤ substrate protein remaining % ≤ 80%) | B ("B" is defined as 80%< substrate protein remaining %≤ 100%) | B ("B" is defined as 80%< substrate protein remaining %≤ 100%) |
| O=C1CCN(N2Cc3cc(CN4CCC(c5ccc(Br)cc5)CC4)ccc3C2=O)C(=O)N1 [GT-06886, 1-(5-((4-(4-bromophenyl)piperidin-1-yl)methyl)-1-oxoisoindolin-2-yl)dihydropyrimidine-2,4(1H,3H)-dione] | A ("A" is defined as 0% ≤ substrate protein remaining % ≤ 80%) | B ("B" is defined as 80%< substrate protein remaining %≤ 100%) | B ("B" is defined as 80%< substrate protein remaining %≤ 100%) | B ("B" is defined as 80%< substrate protein remaining %≤ 100%) | B ("B" is defined as 80%< substrate protein remaining %≤ 100%) | A ("A" is defined as 0% ≤ substrate protein remaining % ≤ 80%) |
